In US7019000B1, “Method of treating a disease condition caused or exacerbated by an HPV” (Institute of Molecular & Cell Biology, priority 1998, dated 2006):

Legend:
[1] = molecular target: T1, E6 binding to E6BP and E6AP (Human papillomavirus type 16, UniProt P03126); test: GST-pulldown experiment, in vitro translated E6 binding to GST-E6BP/GST-E6AP; parameters: species or system HPV-16; conditions: 35S-Cys in vitro translated E6
T1 construct: The open reading frame of HPV-16 E6, cloned into the Hind III and PstI site of the pSP64 plasmid; made in house; host or cells: TNT-SP6 coupled reticulocyte lysate (Promega) for E6; E. coli AB1899 for the GST fusions
Method: The open reading frame of HPV-16 E6, cloned into the Hind III and PstI site of the pSP64 plasmid (33), was in vitro translated with ^35S-cysteine by using the TNT-SP6 Coupled Reticulocyte Lysate System as recommend by the manufacturer (Promega). All washing and binding reactions were performed with the E6BP-binding buffer described (5) but without DTT (100 mM NaCl, 100 mM Tris-HCl pH8.0, 1% NP40, 0.1% nonfat dry milk and 1 mM PMSF. 40 μl of in vitro translated E6 plus 360 μl of E6BP-binding buffer were incubated for 2 hrs at room temperature with test compounds at difference concentrations from 0–1 mM (dissolved in DMSO at 1%), 5 mM EDTA, and H2O2 at 0.3% (85 mM). The sample was then passed over columns captaining glutathione-sepharose beads with bound GST, GST-E6, GST-E6BP or GST-E6AP proteins. The beads were heated to 95° C. in 50 μl Laemmli sample buffer (BIO-RAD) with 2.5% 2-mercaptoethanol, subjected to electrophoresis on a 15% polyacrylamide gel, fixed, stained, and autoradiographed. Interference with complex formation identified reactive compounds. Desitometric quantification was performed with a BIO-RAD/GS700 imaging desitometer.

[2] = system: HPV containing cell lines as HeLa, SiHa and Caski, compared to HPV-negative cell lines MCF7, HEPG2, (HaCat, HT3, 444); test: Cell viability (WST1 assay), panel of HPV-positive and HPV-negative cell lines; assay type: cell-based, human
Method: Zinc finger proteins are required for maintenance of cell viability. Preferably, the compounds for use in the present invention are specific in their ability to affect the viability of MPV containing cells, with little or no cytotoxic effects on the cellular functioning of healthy non-MPV containing cells. The viability of MPV-infected cells (and non infected cells) in the presence of compounds of Formulae (I) or (II) can be measured by incubating with the tetrazolium salt WST1 (Roche Molecular Biochemicals, Manneheim Germany) and measuring the absorption readings thereof (WST1 assay).
(§1) All cell lines were obtained from the American Type Culture Collection (Manassas, Va.) unless otherwise noted. SiHa (human cervical epithelial tumor line, HPV16-positive), CaSki (human cervical epithelial tumor line, HPV16-positive), HaCat (immortalized human skin epithelial cell line, HPV-negative), HeLa (human cervical epithelial tumor line, HPV18-positive), 444 (hybrid of HeLa and fibroblast, HPV18-positive) obtained from Eric Stanbridge (Universitv of California, Irvine), MCF7 (human mammary epithelial tumor cell line, HPV-negative), HT3 (human cervical epithelial tumor cell line, HPV-negative) was obtained from the German Cancer Research Institute/DKFZ-Heidelberg, and HepG2, (human liver epithelial tumor cell line, HPV-negative), were grown in Dulbecco's modified Eagle medium (DMEM) supplemented with 10% fetal calf serum, 100 U penicillin and 1000 U streptomycin. Cells were allowed to attach to the surface of microwell dishes overnight and subsequently, incubated with medium containing the zinc ejecting compounds at the concentrations (10–100 μM). Viability of the cells was scored by measuring the absorption of the tetrazolium salt WST1 (Roche Molecular Biochemicals, Mannheim, Germany) in an Elisa-plate reader (Tecan, Salzburg, Austria) at a wavelength of 450 nm and a reference wavelength of 630 nm.
A total of 10 000 cells per well were plated on 24 well plates, after attachment overnight, they were treated 3 times in 3 days with C16 at 10 μM and 50 μM. The activity of C16 was also compared with that of C4 (azodicarbonamide) which causes ejection of zinc from HIV-1 NCp7 and is currently used in clinical trials for the treatment of AIDS.

[3] = system: HT3, MCF7, HaCat and HeLa-fibroblast hybrid cell line 444; test: Cell viability (WST1 assay), HPV-negative cells and 444 hybrid; assay type: cell-based, human; conditions: treated 3 times in 3 days
Source text: as §1, with “nm. […]” for “nm.”

[4] = system: PARP cleavage in HeLa cells; test: Western blot detection of PARP cleavage, HeLa; assay type: cell-based, human; conditions: 100 μM, one day
Method: (§2) 10^6 cells were plated on 10 cm petri-dishes with 10 ml medium and after attachment overnight, treated with 100 μM C16 or 0.5% DMSO for one day. At the time of cell harvest most C16-treated cells were still attached to the plate. Cells were harvested using a rubber policeman and lysed in 10 mM Hepes buffer, pH 7.2, 150 mM NaCl, 0.2% Nonidet-P40 (NP40) and 1 mM PMSF, followed by centrifugation. 20 μg of protein was loaded onto a 12% SDS-polyacrylamide gel, transferred to a nitrocellulose membrane and the membrane blocked with 5% nonfat dry milk in 20 mM Tris-Cl, pH 7.6, 150 mM NaCl, 0.05% Tween-20 overnight at 4° C. The membrane was then probed with primary antibodies against p53 (Santa Cruz Biotechnology, Santa Cruz, Calif.), β-actin (Sigma, St. Louis, Mo.) or PARP (C210, Centre de Research du Chul, Quebec, Canada) and followed by incubation with horseradish peroxidase-conjugated secondary antibody (Pierce, Rockford, Ill.). Finally, the blot was treated with an enhanced chemiluminescent detection substrate (SuperSignal, Pierce) and autoradiographed.
(§3) Increases in P53 expression are known to be associated with programmed cell death (apoptosis) (29), therefore PARP cleavage, a hallmark of apoptosis was examined in C16 treated cells.

[5] = system: PARP cleavage in HaCat cells; test: Western blot detection of PARP cleavage, HaCat; assay type: cell-based, human; conditions: 100 μM, one day; HPV-negative HaCat cells (mutant p53)
Method: as §2, §3

T1 sequence (P03126 whole entry, the tested form may be a part): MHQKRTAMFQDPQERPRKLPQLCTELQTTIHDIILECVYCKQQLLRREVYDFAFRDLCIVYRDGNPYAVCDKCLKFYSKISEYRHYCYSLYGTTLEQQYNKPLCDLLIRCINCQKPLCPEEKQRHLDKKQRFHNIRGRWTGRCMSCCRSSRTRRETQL

Question: With `C1CN(SSN2CCOCC2)CCO1` [Compound C16] as the molecule, how does the “inhibition of E6 binding to E6BP and E6AP (GST-pulldown, FIG. 2)” value [1] read?
Answer: Its value is “inhibits E6 binding to both cellular proteins”.

Question: And the “effective concentration in cell viability assays” value [2]?
Answer: The value was 50 µM.

Question: What about the WST1 ([2]; 50 μM in cell culture) of the same molecule?
Answer: The WST1 was “+”.

Question: What about the WST1-spec ([2]; 50 μM, HPV containing vs HPV-negative cell lines) of the same molecule?
Answer: The WST1-spec was “+”.

Question: What about the “effect on cell viability” value [3] of the same molecule?
Answer: The value was “little or no effect”.

Question: And the PARP cleavage [4]?
Answer: The PARP cleavage was “PARP cleavage was observed”.

Question: And the PARP cleavage [5]?
Answer: The PARP cleavage was “not”.
